Experimental findings from ChEMBL document CHEMBL5380813, “Discovery of 2H-Indazole-3-carboxamide Derivatives as Novel Potent Prostanoid EP4 Receptor Antagonists for Colorectal Cancer Immunotherapy” (J Med Chem, 2023) are described below.

One may read the IC50 as the concentration at which inhibition is half-maximal. Usually CLint scaled stands for a measure of how fast metabolising enzymes remove a compound, apart from limits set by blood flow.

The target of series [1] is T1, Prostaglandin E2 receptor EP4 subtype (Homo sapiens, UniProt P35408). As to the kind of experiment: Antagonist activity at EP4 receptor (unknown origin) by GloSensor cAMP assay. Background: Cyclic AMP is a second messenger, typically raised through Gs and lowered through Gi signalling.
T1 sequence (P35408 whole entry): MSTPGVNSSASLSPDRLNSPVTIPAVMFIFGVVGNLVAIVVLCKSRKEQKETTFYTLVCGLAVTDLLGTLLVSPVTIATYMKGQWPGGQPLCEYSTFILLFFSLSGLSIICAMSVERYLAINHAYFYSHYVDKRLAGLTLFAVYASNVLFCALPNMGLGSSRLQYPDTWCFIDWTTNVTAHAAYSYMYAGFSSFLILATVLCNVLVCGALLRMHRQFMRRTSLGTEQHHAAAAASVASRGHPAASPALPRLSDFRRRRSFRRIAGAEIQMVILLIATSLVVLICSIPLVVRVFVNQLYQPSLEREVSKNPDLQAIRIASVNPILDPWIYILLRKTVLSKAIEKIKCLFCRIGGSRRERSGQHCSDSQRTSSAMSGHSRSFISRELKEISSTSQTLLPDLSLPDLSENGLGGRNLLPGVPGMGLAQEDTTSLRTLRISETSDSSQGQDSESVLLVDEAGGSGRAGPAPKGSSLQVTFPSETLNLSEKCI
Series [2] has as its target T1, Prostaglandin E2 receptor EP4 subtype. As to the kind of experiment: Antagonist activity at human EP4 receptor transfected in HEK293 cells assessed as inhibition of PGE2-induced cAMP production measured for 30 mins by Glosensor cAMP assay.
The nature of series [3]: Metabolic stability in human liver assessed as intrinsic clearance.
Another series relates to CT26. As to the kind of experiment: animal or person. The following applies: Mus musculus, CT26, po, 240 h, read-out: TGI.
For series [4] the following is noted: human, microsomes.
Description: Metabolic stability in human liver microsomes assessed as assessed as intrinsic clearance
In series [5] the target is Prostaglandin E2 receptor EP2 subtype (Homo sapiens, UniProt P43116). As to the kind of experiment: Antagonist activity at human EP2 receptor expressed in CHO cells co-expressing Galpha16 assessed as inhibition of PGE2 induced intracellular calcium flux preincubated for 20 mins followed by PGE2 stimulation and measured immediately by microplate reader analysis. Format: functional, cell-based. (In general: Calcium flux is commonly read through the fluorescence of an indicator in the cells.)
Prostaglandin E2 receptor EP2 subtype, sequence (P43116 whole entry): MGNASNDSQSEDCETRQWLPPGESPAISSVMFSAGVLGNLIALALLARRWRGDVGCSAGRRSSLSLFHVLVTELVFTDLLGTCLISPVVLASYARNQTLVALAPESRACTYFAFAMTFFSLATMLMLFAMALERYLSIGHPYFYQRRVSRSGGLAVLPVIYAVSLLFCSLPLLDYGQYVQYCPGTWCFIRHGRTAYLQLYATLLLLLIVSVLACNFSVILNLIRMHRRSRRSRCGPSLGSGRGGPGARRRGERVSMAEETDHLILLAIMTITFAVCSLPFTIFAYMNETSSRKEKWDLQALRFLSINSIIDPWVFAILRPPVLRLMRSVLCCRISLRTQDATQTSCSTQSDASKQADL

For series [6], the target named is Prostaglandin E2 receptor EP4 subtype (Rattus norvegicus, UniProt P43114). As to the kind of experiment: Antagonist activity at rat EP4 receptor transfected in HEK293 cells assessed as inhibition of PGE2-induced cAMP production measured for 30 mins by Glosensor cAMP assay. Type of series: functional, cell-based.
Prostaglandin E2 receptor EP4 subtype (Rattus norvegicus, UniProt P43114), sequence (P43114 whole entry): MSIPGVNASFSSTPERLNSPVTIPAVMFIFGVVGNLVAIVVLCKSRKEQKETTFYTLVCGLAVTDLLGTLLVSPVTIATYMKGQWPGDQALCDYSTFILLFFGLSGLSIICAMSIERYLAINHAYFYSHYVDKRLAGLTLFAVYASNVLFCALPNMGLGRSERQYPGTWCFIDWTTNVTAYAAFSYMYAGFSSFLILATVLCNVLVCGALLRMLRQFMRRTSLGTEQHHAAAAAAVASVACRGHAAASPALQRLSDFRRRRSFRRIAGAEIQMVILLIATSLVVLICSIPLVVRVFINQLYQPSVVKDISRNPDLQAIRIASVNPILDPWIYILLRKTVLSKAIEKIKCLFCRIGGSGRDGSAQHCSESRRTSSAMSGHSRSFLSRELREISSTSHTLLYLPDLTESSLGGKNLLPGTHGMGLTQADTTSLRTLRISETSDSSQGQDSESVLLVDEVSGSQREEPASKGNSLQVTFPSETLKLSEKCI
A further series has as its target Cytochrome P450 2C19 (Homo sapiens, UniProt P33261). As to the kind of experiment: Inhibition of CYP2C19 (unknown origin). Format: ADME.
Series [7] deals with T2, Prostaglandin E2 receptor EP3 subtype (Homo sapiens, UniProt P43115).
T2 sequence (P43115 whole entry): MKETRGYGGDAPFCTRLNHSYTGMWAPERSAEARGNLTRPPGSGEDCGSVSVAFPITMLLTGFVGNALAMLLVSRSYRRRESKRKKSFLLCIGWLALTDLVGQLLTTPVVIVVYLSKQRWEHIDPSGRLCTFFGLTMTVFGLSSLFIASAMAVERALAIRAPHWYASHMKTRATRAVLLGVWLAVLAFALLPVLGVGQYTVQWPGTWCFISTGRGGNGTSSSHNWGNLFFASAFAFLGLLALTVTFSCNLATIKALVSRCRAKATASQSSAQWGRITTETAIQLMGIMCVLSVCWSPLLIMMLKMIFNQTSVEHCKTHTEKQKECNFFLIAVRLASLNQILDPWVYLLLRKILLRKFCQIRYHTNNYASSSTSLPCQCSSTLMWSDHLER
As to the kind of experiment: Antagonist activity at human EP3 receptor expressed in CHO cells co-expressing Galpha16 assessed as inhibition of PGE2 induced intracellular calcium flux preincubated for 20 mins followed by PGE2 stimulation and measured immediately by microplate reader analysis. Format: functional, cell-based.

The next series deals with Cytochrome P450 2C9 (Homo sapiens, UniProt P11712). As to the kind of experiment: Inhibition of CYP2C9 (unknown origin). Format: ADME.
Cytochrome P450 2C9, sequence (P11712 whole entry): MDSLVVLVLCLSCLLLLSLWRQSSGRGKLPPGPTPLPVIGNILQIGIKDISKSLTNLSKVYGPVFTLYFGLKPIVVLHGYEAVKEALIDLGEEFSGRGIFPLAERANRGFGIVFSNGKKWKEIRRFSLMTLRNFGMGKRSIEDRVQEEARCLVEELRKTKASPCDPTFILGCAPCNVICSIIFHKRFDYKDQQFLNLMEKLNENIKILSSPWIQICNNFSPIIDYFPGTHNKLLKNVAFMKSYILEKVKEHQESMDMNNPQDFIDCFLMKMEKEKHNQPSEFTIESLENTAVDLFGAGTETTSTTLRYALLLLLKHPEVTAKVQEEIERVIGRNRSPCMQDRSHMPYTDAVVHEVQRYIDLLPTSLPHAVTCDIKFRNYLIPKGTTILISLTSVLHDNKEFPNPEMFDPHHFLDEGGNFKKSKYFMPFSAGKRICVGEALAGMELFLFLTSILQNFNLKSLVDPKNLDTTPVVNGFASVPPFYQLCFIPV
The target of a further series is Cytochrome P450 2D6 (Homo sapiens, UniProt P10635). As to the kind of experiment: Inhibition of CYP2D6 (unknown origin). Format: ADME.
Cytochrome P450 2D6, sequence (P10635 whole entry): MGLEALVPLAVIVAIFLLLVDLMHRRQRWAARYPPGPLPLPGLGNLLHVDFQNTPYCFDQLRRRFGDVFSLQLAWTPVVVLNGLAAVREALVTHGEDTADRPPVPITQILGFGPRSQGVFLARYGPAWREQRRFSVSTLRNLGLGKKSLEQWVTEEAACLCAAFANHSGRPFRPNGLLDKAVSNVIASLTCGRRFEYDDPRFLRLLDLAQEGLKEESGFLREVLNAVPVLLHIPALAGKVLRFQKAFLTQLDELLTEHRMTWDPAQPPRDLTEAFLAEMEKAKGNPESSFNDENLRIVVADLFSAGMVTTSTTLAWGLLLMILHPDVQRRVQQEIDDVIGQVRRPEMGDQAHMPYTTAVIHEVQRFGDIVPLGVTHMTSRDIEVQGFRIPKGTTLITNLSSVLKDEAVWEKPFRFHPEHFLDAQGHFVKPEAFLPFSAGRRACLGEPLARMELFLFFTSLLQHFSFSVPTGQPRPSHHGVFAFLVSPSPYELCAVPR
Series [8] has as its target Prostaglandin E2 receptor EP4 subtype (Mus musculus, UniProt P32240). As to the kind of experiment: Antagonist activity at mouse EP4 receptor transfected in HEK293 cells assessed as inhibition of PGE2-induced cAMP production measured for 30 mins by Glosensor cAMP assay. Type of series: functional, cell-based.
A further series concerns the target CYP3A (Homo sapiens, UniProt P08684+P20815+P24462+Q9HB55). As to the kind of experiment: Inhibition of CYP3A (unknown origin) assessed as reduction in midazolam […] activity. Type of series: ADME, protein assay. The following applies: probe midazolam.
For the next series, the target named is T3, Cytochrome P450 1A2 (Homo sapiens, UniProt P05177).
T3 sequence (P05177 whole entry): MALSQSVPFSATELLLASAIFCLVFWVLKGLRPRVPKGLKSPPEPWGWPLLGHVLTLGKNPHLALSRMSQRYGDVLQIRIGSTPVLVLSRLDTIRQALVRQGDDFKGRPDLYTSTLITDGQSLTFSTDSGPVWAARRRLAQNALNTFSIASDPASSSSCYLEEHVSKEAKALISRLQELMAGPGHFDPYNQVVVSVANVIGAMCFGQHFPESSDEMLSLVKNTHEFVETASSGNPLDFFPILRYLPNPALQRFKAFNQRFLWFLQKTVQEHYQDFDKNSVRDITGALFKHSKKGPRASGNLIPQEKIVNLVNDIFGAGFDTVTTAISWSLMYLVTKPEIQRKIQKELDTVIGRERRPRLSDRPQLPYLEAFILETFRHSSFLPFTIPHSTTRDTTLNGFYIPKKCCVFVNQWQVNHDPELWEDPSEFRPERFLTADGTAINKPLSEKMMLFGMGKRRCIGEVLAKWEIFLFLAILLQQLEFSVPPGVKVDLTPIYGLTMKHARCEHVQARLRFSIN
As to the kind of experiment: Inhibition of CYP1A2 (unknown origin). Format: ADME.

Some results are limits rather than exact numbers.

Prostaglandin E2 receptor EP4 subtype (Mus musculus, UniProt P32240), sequence (P32240 whole entry): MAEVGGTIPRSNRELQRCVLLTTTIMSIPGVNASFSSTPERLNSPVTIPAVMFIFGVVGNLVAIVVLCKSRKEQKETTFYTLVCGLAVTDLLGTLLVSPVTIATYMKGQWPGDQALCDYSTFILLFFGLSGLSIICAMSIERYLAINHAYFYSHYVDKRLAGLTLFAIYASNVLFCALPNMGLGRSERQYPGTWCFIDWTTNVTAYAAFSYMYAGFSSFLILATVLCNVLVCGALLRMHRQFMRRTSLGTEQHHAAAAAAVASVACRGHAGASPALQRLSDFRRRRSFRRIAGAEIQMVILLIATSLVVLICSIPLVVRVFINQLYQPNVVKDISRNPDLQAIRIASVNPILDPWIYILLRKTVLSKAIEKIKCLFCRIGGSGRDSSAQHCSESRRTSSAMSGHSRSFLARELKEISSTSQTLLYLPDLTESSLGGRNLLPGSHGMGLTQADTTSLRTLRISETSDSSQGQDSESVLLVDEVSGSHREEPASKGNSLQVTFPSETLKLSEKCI
Cytochrome P450 2C19, sequence (P33261 whole entry): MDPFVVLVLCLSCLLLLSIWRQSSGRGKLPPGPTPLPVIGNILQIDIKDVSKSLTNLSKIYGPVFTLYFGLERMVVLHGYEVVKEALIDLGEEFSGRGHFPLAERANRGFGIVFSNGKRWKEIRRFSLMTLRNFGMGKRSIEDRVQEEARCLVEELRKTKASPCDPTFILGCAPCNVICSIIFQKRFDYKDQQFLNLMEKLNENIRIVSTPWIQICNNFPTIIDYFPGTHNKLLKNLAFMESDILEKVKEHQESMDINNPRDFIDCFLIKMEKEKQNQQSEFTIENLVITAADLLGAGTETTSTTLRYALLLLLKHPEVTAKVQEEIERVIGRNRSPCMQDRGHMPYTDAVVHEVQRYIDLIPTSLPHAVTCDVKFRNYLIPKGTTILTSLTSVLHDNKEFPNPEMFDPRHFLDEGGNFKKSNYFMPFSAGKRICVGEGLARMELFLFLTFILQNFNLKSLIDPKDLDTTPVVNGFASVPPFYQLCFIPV
Description for CT26: Antitumor activity against mouse CT26 cells implanted in BALB/c mouse assessed as tumor growth inhibition at 100 mg/kg, po administered daily for 10 days and measured every 2 days relative to control

Consider `O=C(O)c1ccc(NC(=O)c2c3ccccc3nn2Cc2ccc(F)cc2)cc1`, for which, in series [1], the IC50 was 3.11 µM.
In the case of `O=C(O)c1ccc(CNC(=O)c2c3ccccc3nn2Cc2ccc(Cl)c(F)c2)cc1`, the IC50 in series [2] was found to be 0.0017 µM. In addition, the CLint scaled in series [3] is under 8.6 mL/min/kg.
With `O=C(O)c1ccc(CNC(=O)c2nn(Cc3ccc(OC(F)(F)F)cc3)c3ccccc23)cc1`, the concentration for half-maximal inhibition (IC50) in series [2] amounted to 10 µM.
In the case of `O=C(O)c1ccc(CNC(=O)c2c3ccc(F)cc3nn2Cc2ccc(C(F)(F)F)cc2)cc1`, in series [2], the IC50 stood at 0.0057 µM. In addition, the CLint scaled in [3] was under 8.6 mL/min/kg.
With `O=C(O)c1ccc(CNC(=O)c2c3ccccc3nn2CCOc2ccc(Cl)cc2)cc1`, in series [2], the IC50 stood at 0.0218 µM.
For the molecule `COc1ccc(Cn2nc3ccccc3c2C(=O)N[C@@H](C)c2ccc(C(=O)O)cc2)cc1`, the IC50 in series [2] was determined as 0.0072 µM.
Turning to `COc1ccc(Cn2nc3ccccc3c2C(=O)NCc2ccc(C(=O)O)cc2)cc1F`, in series [2], the IC50 is 0.0021 µM.
Still for that read-out and setting: under `O=C(O)c1ccc(CNC(=O)c2nn(Cc3ccc(C(F)(F)F)cc3)c3ccccc23)cc1` stands 10 µM.
As to `C[C@H](NC(=O)c1c(C(F)F)nn(C)c1Oc1cccc(C(F)(F)F)c1)c1ccc(C(=O)O)cc1` [PALUPIPRANT], in the series with CT26, the inhibition in vivo at 100 mg/kg was 43.3%.
In the case of `COc1cccc(Cn2nc3ccccc3c2C(=O)NCc2ccc(C(=O)O)cc2)c1`, the IC50 in series [2] was found to be 0.012 µM.
As for `C[C@H](NC(=O)c1c2ccccc2nn1Cc1ccc(OC(F)(F)F)cc1)c1ccc(C(=O)O)cc1`, the IC50 in series [2] came to 0.0043 µM.
Still for that read-out and setting: under `O=C(O)c1ccc(CNC(=O)c2nn(Cc3cccc(Cl)c3)c3ccccc23)cc1` stands 10 µM; under `COc1c(F)cc(Cn2nc3ccccc3c2C(=O)NCc2ccc(C(=O)O)cc2)cc1F`, 0.0075 µM; under `O=C(O)c1ccc(CNC(=O)c2c3ccccc3nn2Cc2cccc(Cl)c2)cc1`, 0.0069 µM.
For `O=C(O)c1ccc(CNC(=O)c2c3ccccc3nn2Cc2ccc(F)cc2)cc1`, the half-maximal inhibitory concentration (IC50) in series [2] was 0.0071 µM.
For `O=C(O)c1cccc(NC(=O)c2c3ccccc3nn2Cc2cccc(F)c2)c1`, in series [2], the IC50 stood at 10 µM.
For `O=C(O)c1ccc(CNC(=O)c2nn(Cc3cccc(C(F)(F)F)c3)c3ccccc23)cc1`, in series [2], the IC50 is 10 µM.
Same read-out and setting: next, `O=C(O)c1ccc(CNC(=O)c2nn(Cc3ccccc3)c3ccccc23)cc1`: 10 µM; `Cc1ccc(Cn2nc3ccccc3c2C(=O)NCc2ccc(C(=O)O)cc2)cc1`: 0.0042 µM.
`COc1ccc(Cn2nc3ccccc3c2C(=O)NCc2ccc(C(=O)O)cc2)cc1Cl`: the IC50 in series [2] turned out to be 0.0065 µM.
The molecule `C[C@]12CC[C@H]3[C@@H](CCC4=CC(=O)CC[C@@]43C)[C@@H]1CC[C@@H]2O` [TESTOSTERONE] had a CLH in series [4] of 0.1082 mL/min/kg. Also, the CLint scaled in series [3] is 97.4 mL/min/kg.
Regarding `O=C(O)c1cccc(NC(=O)c2c3ccccc3nn2Cc2ccc(F)cc2)c1`, in [2], the IC50 turned out to be 10 µM.
For the molecule `COc1ccc(Cn2nc(C(=O)NCc3ccc(C(=O)O)cc3)c3ccccc32)cc1`, the IC50 in series [2] is 10 µM.
Still for that read-out and setting: next, `O=C(O)c1ccc(CNC(=O)c2nn(Cc3ccc(Cl)cc3)c3ccccc23)cc1`: 10 µM.
The same measure, in the same setting: next, `O=C(O)c1ccc(CNC(=O)c2c3ccccc3nn2CCOc2cccc(C(F)(F)F)c2)cc1`: 0.0691 µM; `COc1cccc(Cn2nc(C(=O)NCc3ccc(C(=O)O)cc3)c3ccccc32)c1`: 10 µM; `O=C(O)c1ccc(CNC(=O)c2c3ccccc3nn2Cc2ccc(C(F)(F)F)cc2F)cc1`: 0.002 µM.
As to `COc1ccc(Cn2nc3ccccc3c2C(=O)NCc2ccc(C(=O)O)cc2)cc1`, in [2], the IC50 worked out at 0.0044 µM.
`O=C(O)Cc1ccccc1Nc1c(Cl)cccc1Cl` [DICLOFENAC] registered a CLH in series [4] of 0.2079 mL/min/kg. In addition, the CLint scaled in series [3] amounted to 187 mL/min/kg.
Regarding `COc1ccc2c(C(=O)NCc3ccc(C(=O)O)cc3)n(Cc3ccc(C(F)(F)F)cc3)nc2c1`, the IC50 in series [2] was 0.0594 µM.
As to `O=C(O)c1ccc(CNC(=O)c2c3ccccc3nn2Cc2ccc(C(F)(F)F)cc2)cc1`, the IC50 was over 10 µM in series [5]; 0.0363 µM in [6]; over 50 µM against Cytochrome P450 2C19; over 10 µM in [7]; over 50 µM at Cytochrome P450 2C9; over 50 µM against Cytochrome P450 2D6. The IC50 in [8] was 0.0016 µM; at CYP3A, over 50 µM; against Cytochrome P450 1A2, over 50 µM.
In the case of `O=C(O)c1ccc(C2(NC(=O)c3c4ccccc4nn3Cc3ccc(C(F)(F)F)cc3)CC2)cc1`, in series [2], the IC50 worked out at 0.0069 µM.
The same measure, in the same setting: next, `O=C(O)c1ccc(CNC(=O)c2c3ccccc3nn2Cc2cccc(F)c2)cc1`: 0.017 µM; `COc1cccc(Cn2nc3ccccc3c2C(=O)N[C@@H](C)c2ccc(C(=O)O)cc2)c1`: 0.019 µM.
